Like-named read-outs stand apart in the source and are kept apart here.
Assays:
Format in all cases: biochemical
[1] = target: 320 wild-type protein kinases (Homo sapiens, UniProt P05129); details: PKC-gamma, singlicate
Excerpt: (§1) Table S4. Profiling of two compounds at two concentrations against 320 wild-type protein kinases; singlicate measurement; Residual activities (% of control).

[2] = target: T1, 320 wild-type protein kinases (Homo sapiens, UniProt Q96PY6); details: singlicate
T1 sequence (Q96PY6 1-1258): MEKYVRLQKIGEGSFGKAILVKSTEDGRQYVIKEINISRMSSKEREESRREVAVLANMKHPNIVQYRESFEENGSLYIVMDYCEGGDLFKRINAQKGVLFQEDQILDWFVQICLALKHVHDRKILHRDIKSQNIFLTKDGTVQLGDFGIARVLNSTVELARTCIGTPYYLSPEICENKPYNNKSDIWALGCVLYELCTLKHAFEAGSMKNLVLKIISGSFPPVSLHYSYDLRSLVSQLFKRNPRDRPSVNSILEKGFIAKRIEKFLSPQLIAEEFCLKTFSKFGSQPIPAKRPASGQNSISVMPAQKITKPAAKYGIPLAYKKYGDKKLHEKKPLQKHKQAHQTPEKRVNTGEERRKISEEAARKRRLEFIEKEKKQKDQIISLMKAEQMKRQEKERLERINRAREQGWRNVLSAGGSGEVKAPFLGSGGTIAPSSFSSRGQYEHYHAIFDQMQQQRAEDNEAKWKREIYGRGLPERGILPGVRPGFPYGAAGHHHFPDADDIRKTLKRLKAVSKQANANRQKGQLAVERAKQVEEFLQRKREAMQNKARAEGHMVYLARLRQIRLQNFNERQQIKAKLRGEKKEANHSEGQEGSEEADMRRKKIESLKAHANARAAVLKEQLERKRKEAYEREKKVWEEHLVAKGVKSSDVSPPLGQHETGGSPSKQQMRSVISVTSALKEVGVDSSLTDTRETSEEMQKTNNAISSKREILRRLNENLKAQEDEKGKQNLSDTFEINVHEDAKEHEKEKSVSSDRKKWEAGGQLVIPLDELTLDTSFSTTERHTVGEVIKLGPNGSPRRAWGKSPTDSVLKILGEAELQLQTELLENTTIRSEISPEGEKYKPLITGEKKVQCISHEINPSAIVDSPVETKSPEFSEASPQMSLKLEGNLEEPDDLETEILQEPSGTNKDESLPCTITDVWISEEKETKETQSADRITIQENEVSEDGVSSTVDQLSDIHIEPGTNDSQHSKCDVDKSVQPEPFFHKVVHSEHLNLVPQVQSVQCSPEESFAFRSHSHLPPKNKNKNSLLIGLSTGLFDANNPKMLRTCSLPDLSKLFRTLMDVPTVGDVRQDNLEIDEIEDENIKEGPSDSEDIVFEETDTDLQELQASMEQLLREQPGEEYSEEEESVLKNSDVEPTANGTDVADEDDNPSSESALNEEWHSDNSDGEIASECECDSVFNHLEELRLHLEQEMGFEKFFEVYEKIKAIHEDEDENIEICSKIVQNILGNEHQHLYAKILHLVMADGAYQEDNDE
Excerpt: as §1

[3] = target: 320 wild-type protein kinases (Homo sapiens, UniProt P53667); details: singlicate
Excerpt: as §1

[4] = target: 320 wild-type protein kinases (Homo sapiens, UniProt Q86UE8); details: kinase TLK2, singlicate
Excerpt: as §1

[5] = target: T2, 320 wild-type protein kinases (Homo sapiens, UniProt P15735); details: singlicate
T2 sequence (P15735 1-406): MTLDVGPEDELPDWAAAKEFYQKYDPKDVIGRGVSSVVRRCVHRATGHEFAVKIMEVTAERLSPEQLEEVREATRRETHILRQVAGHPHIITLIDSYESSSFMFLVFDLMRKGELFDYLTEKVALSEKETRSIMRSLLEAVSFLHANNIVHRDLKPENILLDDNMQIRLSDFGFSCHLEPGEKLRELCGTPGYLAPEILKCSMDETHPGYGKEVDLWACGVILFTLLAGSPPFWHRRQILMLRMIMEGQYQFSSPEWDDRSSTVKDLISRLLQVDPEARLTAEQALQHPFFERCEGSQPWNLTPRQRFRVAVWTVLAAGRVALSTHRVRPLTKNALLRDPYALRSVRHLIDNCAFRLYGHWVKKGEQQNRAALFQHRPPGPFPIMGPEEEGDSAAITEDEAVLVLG
Excerpt: as §1

[6] = target: 320 wild-type protein kinases (Homo sapiens, UniProt Q05655); details: PKC-delta, singlicate
Excerpt: as §1

[7] = target: 320 wild-type protein kinases (Homo sapiens, UniProt Q9H1R3); details: singlicate
Excerpt: as §1

[8] = target: 320 wild-type protein kinases (Homo sapiens, UniProt P51451); details: BLK, singlicate
Excerpt: as §1

[9] = target: 320 wild-type protein kinases (Homo sapiens, UniProt P36894); details: BMPR1A, singlicate
Excerpt: as §1

[10] = target: T3, 320 wild-type protein kinases (Homo sapiens, UniProt P53778); details: p38-gamma, singlicate
T3 sequence (P53778 1-367): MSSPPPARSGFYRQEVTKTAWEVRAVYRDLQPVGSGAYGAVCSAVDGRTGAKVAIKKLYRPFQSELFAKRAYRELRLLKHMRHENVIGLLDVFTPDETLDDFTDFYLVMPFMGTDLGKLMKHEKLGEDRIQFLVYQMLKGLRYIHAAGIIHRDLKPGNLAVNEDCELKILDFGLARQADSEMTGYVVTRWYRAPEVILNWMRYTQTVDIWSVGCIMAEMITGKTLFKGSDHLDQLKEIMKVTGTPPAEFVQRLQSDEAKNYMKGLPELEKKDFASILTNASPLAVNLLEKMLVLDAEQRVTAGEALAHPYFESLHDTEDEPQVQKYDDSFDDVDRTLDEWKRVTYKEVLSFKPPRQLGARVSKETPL
Excerpt: as §1

[11] = target: 320 wild-type protein kinases (Homo sapiens, UniProt P19784); details: singlicate
Excerpt: as §1

Chain of 320 wild-type protein kinases (Homo sapiens, UniProt P36894) (P36894 24-532): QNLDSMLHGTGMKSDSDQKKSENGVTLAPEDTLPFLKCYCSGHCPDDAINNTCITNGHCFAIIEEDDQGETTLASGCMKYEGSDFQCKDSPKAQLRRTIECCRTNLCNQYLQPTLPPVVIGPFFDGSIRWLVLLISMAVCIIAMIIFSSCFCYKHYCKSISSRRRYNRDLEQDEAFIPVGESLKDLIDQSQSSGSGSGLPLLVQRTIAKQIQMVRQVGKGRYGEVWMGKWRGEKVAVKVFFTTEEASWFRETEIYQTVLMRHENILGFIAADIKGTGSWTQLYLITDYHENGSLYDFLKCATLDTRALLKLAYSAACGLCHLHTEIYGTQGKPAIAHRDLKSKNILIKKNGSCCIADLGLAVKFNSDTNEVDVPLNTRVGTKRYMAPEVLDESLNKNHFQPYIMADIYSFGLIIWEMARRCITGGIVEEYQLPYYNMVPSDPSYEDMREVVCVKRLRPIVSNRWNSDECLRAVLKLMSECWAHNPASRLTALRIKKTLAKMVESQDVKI
Chain of 320 wild-type protein kinases (Homo sapiens, UniProt P19784) (P19784 whole entry): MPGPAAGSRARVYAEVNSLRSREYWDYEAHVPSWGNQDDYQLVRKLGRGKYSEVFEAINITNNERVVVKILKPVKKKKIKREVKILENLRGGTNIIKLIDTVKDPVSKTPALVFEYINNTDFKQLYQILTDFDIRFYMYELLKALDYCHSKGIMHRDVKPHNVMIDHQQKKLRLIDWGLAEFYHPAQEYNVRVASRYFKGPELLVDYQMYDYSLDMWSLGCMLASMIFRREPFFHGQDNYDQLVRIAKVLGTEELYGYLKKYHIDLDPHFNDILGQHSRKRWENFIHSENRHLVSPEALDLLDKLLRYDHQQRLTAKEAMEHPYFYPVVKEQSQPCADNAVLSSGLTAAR
Chain of 320 wild-type protein kinases (Homo sapiens, UniProt P53667) (P53667 whole entry): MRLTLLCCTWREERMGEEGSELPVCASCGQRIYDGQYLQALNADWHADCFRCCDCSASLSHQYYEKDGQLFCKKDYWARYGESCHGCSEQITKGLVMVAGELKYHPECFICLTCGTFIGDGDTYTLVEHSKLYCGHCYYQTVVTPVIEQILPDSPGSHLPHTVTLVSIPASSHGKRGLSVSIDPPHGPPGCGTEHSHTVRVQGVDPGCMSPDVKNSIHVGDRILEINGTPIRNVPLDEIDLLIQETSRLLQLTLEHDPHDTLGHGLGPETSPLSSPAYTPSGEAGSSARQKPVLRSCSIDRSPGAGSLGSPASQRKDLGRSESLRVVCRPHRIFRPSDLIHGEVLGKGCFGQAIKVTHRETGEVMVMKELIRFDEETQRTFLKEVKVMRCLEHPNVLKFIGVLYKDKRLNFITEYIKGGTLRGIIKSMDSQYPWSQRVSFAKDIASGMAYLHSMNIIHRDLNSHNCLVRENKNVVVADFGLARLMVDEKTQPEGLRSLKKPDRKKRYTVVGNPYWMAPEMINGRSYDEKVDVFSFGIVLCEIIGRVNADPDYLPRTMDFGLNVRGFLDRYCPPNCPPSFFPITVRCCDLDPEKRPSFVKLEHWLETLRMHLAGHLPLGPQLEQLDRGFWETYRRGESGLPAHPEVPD
Chain of 320 wild-type protein kinases (Homo sapiens, UniProt P51451) (P51451 whole entry): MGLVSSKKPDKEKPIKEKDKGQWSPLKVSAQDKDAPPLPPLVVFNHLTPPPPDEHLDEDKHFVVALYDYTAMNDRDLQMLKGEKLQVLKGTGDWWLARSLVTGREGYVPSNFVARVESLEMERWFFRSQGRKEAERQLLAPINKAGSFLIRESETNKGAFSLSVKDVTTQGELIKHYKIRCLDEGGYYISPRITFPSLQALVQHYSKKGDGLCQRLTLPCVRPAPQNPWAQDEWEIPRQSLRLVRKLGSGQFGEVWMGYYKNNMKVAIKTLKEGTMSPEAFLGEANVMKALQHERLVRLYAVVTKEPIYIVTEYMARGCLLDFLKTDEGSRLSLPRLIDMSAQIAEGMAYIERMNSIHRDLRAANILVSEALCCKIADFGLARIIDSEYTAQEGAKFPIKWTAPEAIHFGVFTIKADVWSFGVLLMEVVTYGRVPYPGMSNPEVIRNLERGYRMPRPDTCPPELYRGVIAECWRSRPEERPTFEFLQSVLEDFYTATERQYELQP
Chain of 320 wild-type protein kinases (Homo sapiens, UniProt Q86UE8) (Q86UE8 whole entry): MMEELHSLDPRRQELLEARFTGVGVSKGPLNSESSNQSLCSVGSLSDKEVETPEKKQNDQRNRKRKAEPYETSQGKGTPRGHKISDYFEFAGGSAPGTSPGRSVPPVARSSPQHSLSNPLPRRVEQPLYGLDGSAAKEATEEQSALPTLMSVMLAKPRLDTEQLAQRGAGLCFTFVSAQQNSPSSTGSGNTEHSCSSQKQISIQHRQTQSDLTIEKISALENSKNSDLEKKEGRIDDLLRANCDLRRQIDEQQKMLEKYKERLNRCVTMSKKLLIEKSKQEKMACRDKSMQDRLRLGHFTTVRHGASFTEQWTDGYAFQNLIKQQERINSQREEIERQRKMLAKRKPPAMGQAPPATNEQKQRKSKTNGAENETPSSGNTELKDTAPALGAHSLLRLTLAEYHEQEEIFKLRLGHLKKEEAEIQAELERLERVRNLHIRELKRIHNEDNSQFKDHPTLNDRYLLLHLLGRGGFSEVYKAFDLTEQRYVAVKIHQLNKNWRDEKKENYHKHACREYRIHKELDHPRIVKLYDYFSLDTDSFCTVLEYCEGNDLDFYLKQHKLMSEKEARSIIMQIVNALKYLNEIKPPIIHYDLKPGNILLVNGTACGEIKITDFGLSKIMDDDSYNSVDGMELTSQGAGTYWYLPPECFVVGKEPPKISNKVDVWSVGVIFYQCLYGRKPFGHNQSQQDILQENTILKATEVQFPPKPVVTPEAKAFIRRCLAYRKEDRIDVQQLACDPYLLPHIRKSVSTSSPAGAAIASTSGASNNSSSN
Chain of 320 wild-type protein kinases (Homo sapiens, UniProt Q05655) (Q05655 whole entry): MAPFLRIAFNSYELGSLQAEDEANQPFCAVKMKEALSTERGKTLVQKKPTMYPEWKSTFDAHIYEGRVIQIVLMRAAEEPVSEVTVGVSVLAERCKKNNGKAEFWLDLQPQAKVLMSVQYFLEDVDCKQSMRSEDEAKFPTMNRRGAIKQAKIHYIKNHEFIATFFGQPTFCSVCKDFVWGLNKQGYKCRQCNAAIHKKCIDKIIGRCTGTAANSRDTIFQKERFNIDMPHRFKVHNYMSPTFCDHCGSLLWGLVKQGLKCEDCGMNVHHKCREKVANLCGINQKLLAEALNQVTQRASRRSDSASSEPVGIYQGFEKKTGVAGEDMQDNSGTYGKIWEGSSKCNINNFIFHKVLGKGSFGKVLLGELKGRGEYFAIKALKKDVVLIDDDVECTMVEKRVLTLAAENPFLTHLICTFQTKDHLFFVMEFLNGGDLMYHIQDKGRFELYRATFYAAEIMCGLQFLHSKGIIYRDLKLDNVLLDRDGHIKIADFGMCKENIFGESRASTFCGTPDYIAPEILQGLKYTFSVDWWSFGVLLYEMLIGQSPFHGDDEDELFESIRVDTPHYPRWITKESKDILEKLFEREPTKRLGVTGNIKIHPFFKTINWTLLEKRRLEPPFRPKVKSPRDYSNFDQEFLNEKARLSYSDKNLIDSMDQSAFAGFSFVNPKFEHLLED
Chain of 320 wild-type protein kinases (Homo sapiens, UniProt Q9H1R3) (Q9H1R3 whole entry): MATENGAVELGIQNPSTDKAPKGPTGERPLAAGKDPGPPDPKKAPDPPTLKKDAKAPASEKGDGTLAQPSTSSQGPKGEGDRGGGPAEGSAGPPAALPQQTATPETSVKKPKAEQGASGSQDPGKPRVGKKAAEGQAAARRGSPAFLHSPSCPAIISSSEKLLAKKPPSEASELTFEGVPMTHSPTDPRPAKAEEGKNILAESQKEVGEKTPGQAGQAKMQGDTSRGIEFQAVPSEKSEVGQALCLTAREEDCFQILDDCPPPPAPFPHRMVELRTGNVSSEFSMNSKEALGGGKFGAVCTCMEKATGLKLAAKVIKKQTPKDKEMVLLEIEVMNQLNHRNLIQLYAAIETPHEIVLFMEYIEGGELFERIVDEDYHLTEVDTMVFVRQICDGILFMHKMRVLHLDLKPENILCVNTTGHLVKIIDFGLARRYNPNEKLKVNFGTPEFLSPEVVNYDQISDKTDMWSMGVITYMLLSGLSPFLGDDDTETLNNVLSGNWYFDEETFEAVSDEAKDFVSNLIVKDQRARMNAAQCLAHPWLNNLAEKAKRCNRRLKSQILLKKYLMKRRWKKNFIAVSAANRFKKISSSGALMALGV

Row | Compound | Residual activity ([1]; 1.0E-06 M) | Residual activity ([1]; 1.0E-07 M) | Residual activity ([2]; NEK1, 1.0E-06 M) | Residual activity ([2]; NEK1, 1.0E-07 M) | Residual activity ([3]; LIMK1, 1.0E-06 M) | Residual activity ([3]; LIMK1, 1.0E-07 M) | Residual activity, TLK2 ([4]; assay conc. 1.0E-06 M) | Residual activity, TLK2 ([4]; assay conc. 1.0E-07 M) | Residual activity ([5]; PHKG2, 1.0E-06 M) | Residual activity ([5]; PHKG2, 1.0E-07 M) | Residual activity ([6]; 1.0E-06 M) | Residual activity ([6]; 1.0E-07 M) | Residual activity ([7]; MYLK2, 1.0E-06 M) | Residual activity ([7]; MYLK2, 1.0E-07 M) | Residual activity ([8]; 1.0E-06 M) | Residual activity ([8]; 1.0E-07 M) | Residual activity ([9]; 1.0E-06 M) | Residual activity ([9]; 1.0E-07 M) | Residual activity ([10]; 1.0E-06 M) | Residual activity ([10]; 1.0E-07 M) | further results
1 | C#Cc1cc(Nc2ncnc3cc(I)ccc23)ccc1Cl [Compound 41] | 89 % of control | 99 % of control | 82 % of control | 86 % of control | 86 % of control | 101 % of control | 109 % of control | 117 % of control | 98 % of control | 94 % of control | 88 % of control | 92 % of control | 75 % of control | 90 % of control | 93 % of control | 99 % of control | 96 % of control | 109 % of control | 78 % of control | 87 % of control | Residual activity ([11]; CK2-alpha2, 1.0E-06 M): 115 % of control; Residual activity ([11]; CK2-alpha2, 1.0E-07 M): 115 % of control
2 | C#Cc1cc(Nc2ncnc3cc(OC)c(OC)cc23)ccc1Cl [Compound 45] | 88 % of control | 87 % of control | 89 % of control | 89 % of control | 90 % of control | 103 % of control | 103 % of control | 111 % of control | 103 % of control | 95 % of control | 89 % of control | 115 % of control | 70 % of control | 89 % of control | 62 % of control | 99 % of control | 110 % of control | 102 % of control | 85 % of control | 90 % of control | Residual activity ([11]; CK2-alpha2, 1.0E-06 M): 111 % of control; Residual activity ([11]; CK2-alpha2, 1.0E-07 M): 118 % of control

Reference: article PMC9329436, “Optimization of the 4-anilinoquin(az)oline scaffold as epidermal growth factor receptor (EGFR) inhibitors for chordoma utilizing a toxicology profiling assay platform” (Scientific Reports, 2022)
